Laboratory results published in patent US20250236608A1, “EGFR INHIBITORS” (Blueprint Medicines Corporation, priority 2022, published 2025).

Key:
[1] = biological target: pEGFR (Tyr1068) in PC-9 cells (Ex19Del) (Homo sapiens (Human), UniProt P00533, DEL746-750); test: PC-9 pEGFR AlphaLISA assay; format: cell-based; conditions: 4 hours incubation, p-EGFR (Tyr1068) AlphaLISA, read-out: Ext pEGFR_PC-9 Ex19Del IC50
How it was run: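 PC-9 cells seeded overnight in phenol-free DMEM with 10% FBS, then treated 4 h at 37°C with a 10-point, 4-fold compound series. Lysates assayed for pEGFR Tyr1068 by AlphaLISA SureFire; IC50 from % inhibition vs log concentration.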

EGFR (d746-750) = EGFR (d746-750) (Homo sapiens (Human), UniProt P00533, DEL746-750); test: Biochemical EGFR inhibition assay, EGFR (d746-750); conditions: Caliper mobility shift; 1.0 mM ATP or ATP Km; read-out: Enz EGFR_Exon19-del746-750 IC50
EGFR L858R = EGFR L858R (Homo sapiens (Human), UniProt P00533, L858R); test: Biochemical EGFR inhibition assay, EGFR L858R; conditions: Caliper mobility shift; 1.0 mM ATP or ATP Km; read-out: Enz EGFR_L858R IC50

Molecule	IC50 [1]	IC50 (EGFR (d746-750))	IC50 (EGFR L858R)
COc1cc2ncnc(-c3cn(C)nc3-c3ccccc3)c2cc1NC(=O)c1cnn(C(F)(F)F)c1C [Example 234, N-(7-methoxy-4-(1-methyl-3-phenyl-1H-pyrazol-4-yl)quinazolin-6-yl)-5-methyl-1-(trifluoromethyl)-1H-pyrazole-4-carboxamide]	2.8 nM	1.1 nM	1.9 nM
CCn1cc(-c2ncnc3cc(OC)c([C@H](C)O)cc23)c(-c2ccccc2)n1 (single isomer, unassigned) [Example 105, (S)-1-(4-(1-ethyl-3-phenyl-1H-pyrazol-4-yl)-7-methoxyquinazolin-6-yl)ethan-1-ol or (R)-1-(4-(1-ethyl-3-phenyl-1H-pyrazol-4-yl)-7-methoxyquinazolin-6-yl)ethan-1-ol]	6.5 nM	1.3 nM	3.3 nM
CCC(=O)Nc1cc2c(-c3cn(C)nc3-c3ccccc3)ncnc2cc1C#CCN1CCOCC1 [Example 451, N-(4-(1-methyl-3-phenyl-1H-pyrazol-4-yl)-7-(3-morpholinoprop-1-yn-1-yl)quinazolin-6-yl)propionamide]	2.8 nM	2 nM	3.5 nM
COc1cc2ncnc(-c3cn(C)nc3-c3ccc(F)cc3)c2nc1NC(=O)[C@]12COC[C@H]1C2 (single isomer, unassigned) [Example 381, (1S,5S)—N-(4-(3-(4-fluorophenyl)-1-methyl-1H-pyrazol-4-yl)-7-methoxypyrido[3,2-d]pyrimidin-6-yl)-3-oxabicyclo[3.1.0]hexane-1-carboxamide or (1R,5R)—N-(4-(3-(4-fluorophenyl)-1-methyl-1H-pyrazol-4-yl)-7-methoxypyrido[3,2-d]pyrimidin-6-yl)-3-oxabicyclo[3.1.0]hexane-1-carboxamide]	1.4 nM	0.7 nM	1.9 nM
COc1cc2ncnc(-c3cn(C)nc3-c3ccccc3)c2cc1NC(=O)[C@@H]1CCN(C)C1 [Example 210, (R)-N-(7-methoxy-4-(1-methyl-3-phenyl-1H-pyrazol-4-yl)quinazolin-6-yl)-1-methylpyrrolidine-3-carboxamide]	1.7 nM	0.6 nM	1.1 nM
CCn1cc(-c2ncnc3cc(OC)c(NC(=O)c4cccnc4)cc23)c(-c2ccccc2)n1 [Example 332, N-(4-(1-ethyl-3-phenyl-1H-pyrazol-4-yl)-7-methoxyquinazolin-6-yl) nicotinamide]	2.1 nM	1.6 nM	2.3 nM
COc1cc2ncnc(-c3cn(C)nc3-c3ccccc3)c2nc1O[C@H](C)c1cccnc1F [Example 48, (R)-6-(1-(2-fluoropyridin-3-yl)ethoxy)-7-methoxy-4-(1-methyl-3-phenyl-1H-pyrazol-4-yl)pyrido[3,2-d]pyrimidine]	1.1 nM	1.4 nM	1.8 nM
COc1cc2ncnc(-c3cn(C)nc3-c3ccccc3)c2cc1NC(=O)c1cccc(C)n1 [Example 329, N-(7-methoxy-4-(1-methyl-3-phenyl-1H-pyrazol-4-yl)quinazolin-6-yl)-6-methylpicolinamide]	1.3 nM	0.9 nM	1.4 nM
COc1cc2ncnc(-c3cn(C)nc3-c3ccccc3)c2cc1NC(=O)c1cncc(F)c1 [Example 327, 5-fluoro-N-(7-methoxy-4-(1-methyl-3-phenyl-1H-pyrazol-4-yl)quinazolin-6-yl)nicotinamide]	10.4 nM	5.1 nM	10.4 nM
CCn1cc(-c2ncnc3cc(OC)c(NC(=O)C4(C(F)(F)F)CC4)nc23)c(-c2ccccc2)n1 [Example 371, N-(4-(1-ethyl-3-phenyl-1H-pyrazol-4-yl)-7-methoxypyrido[3,2-d]pyrimidin-6-yl)-1-(trifluoromethyl)cyclopropane-1-carboxamide]	0.8 nM	0.9 nM	1.4 nM
CCOc1cc2ncnc(-c3cn(C(C)C)nc3-c3ccccc3)c2cc1CO [Example 125, (7-ethoxy-4-(1-isopropyl-3-phenyl-1H-pyrazol-4-yl)quinazolin-6-yl)methanol]	2.1 nM	0.9 nM	1.4 nM
COc1cc2ncnc(-c3cn(C)nc3-c3ccccc3)c2nc1NC(=O)C1(C)CCCO1 (stereo not drawn) [Example 316, N-(7-methoxy-4-(1-methyl-3-phenyl-1H-pyrazol-4-yl)pyrido[3,2-d]pyrimidin-6-yl)-2-methyltetrahydrofuran-2-carboxamide]	3.1 nM	0.8 nM	3.5 nM
CCOc1cc2ncnc(-c3cn(C)nc3-c3ccccc3)c2nc1N1CC2(COC2)C1 [Example 175, 6-(7-ethoxy-4-(1-methyl-3-phenyl-1H-pyrazol-4-yl)pyrido[3,2-d]pyrimidin-6-yl)-2-oxa-6-azaspiro[3.3]heptane]	1.2 nM	1 nM	1.6 nM
COc1cc2ncnc(-c3cn(C)nc3-c3ccccc3)c2cc1N1CCOCC1 [Example 160, 4-(7-methoxy-4-(1-methyl-3-phenyl-1H-pyrazol-4-yl)quinazolin-6-yl)morpholine]	8.3 nM	2.9 nM	20 nM
7-methoxy-6-(2-methyl-2H-indazol-4-yl)-4-(1-methyl-3-phenyl-1H-pyrazol-4-yl)pyrido[3,2-d]pyrimidine [Example 155]	5.1 nM	2 nM	7.3 nM
CCCn1cc(-c2ncnc3cc(OC)c(NC(=O)c4ccc(C5CC5)nc4)cc23)c(-c2ccccc2)n1 [Example 301, 6-cyclopropyl-N-(7-methoxy-4-(3-phenyl-1-propyl-1H-pyrazol-4-yl)quinazolin-6-yl)nicotinamide]	0.8 nM	2 nM	2.7 nM
COc1cc2ncnc(-c3cn(C)nc3-c3ccccc3)c2cc1NC(=O)C1CC1 [Example 344, N-(7-methoxy-4-(1-methyl-3-phenyl-1H-pyrazol-4-yl)quinazolin-6-yl)cyclopropanecarboxamide]	0.8 nM	1 nM	1.6 nM
COc1cc2ncnc(-c3cn(C)nc3-c3ccccc3)c2cc1OC(=O)N1CCN(C)CC1(C)C [Example 78, 7-methoxy-4-(1-methyl-3-phenyl-1H-pyrazol-4-yl)quinazolin-6-yl 2,2,4-trimethylpiperazine-1-carboxylate]	8.1 nM	2.4 nM	7 nM
COc1cc2ncnc(-c3cn(CC(F)F)nc3-c3ccccc3)c2cc1OC [Example 15, 4-(1-(2,2-difluoroethyl)-3-phenyl-1H-pyrazol-4-yl)-6,7-dimethoxyquinazoline]	1.5 nM	0.8 nM	1.5 nM
CC(C)Oc1cc2ncnc(-c3cn(C)nc3-c3ccccc3)c2cc1[C@H](C)O (single isomer, unassigned) [Example 113, (S)-1-(7-isopropoxy-4-(1-methyl-3-phenyl-1H-pyrazol-4-yl)quinazolin-6-yl)ethan-1-ol or (R)-1-(7-isopropoxy-4-(1-methyl-3-phenyl-1H-pyrazol-4-yl)quinazolin-6-yl)ethan-1-ol]	11.2 nM	2.4 nM	5.5 nM
COc1cc2ncnc(-c3cn(C)nc3-c3ccccc3)c2cc1OC(=O)N1[C@H](C)COC[C@@H]1C [Example 63, 7-methoxy-4-(1-methyl-3-phenyl-1H-pyrazol-4-yl)quinazolin-6-yl (3S,5R)-3,5-dimethylmorpholine-4-carboxylate]	2.5 nM	2.4 nM	4.8 nM
CCOc1cc2ncnc(-c3cn(C)nc3-c3ccccc3)c2cc1NC(=O)c1cnn(C(F)(F)F)c1 [Example 232, N-(7-ethoxy-4-(1-methyl-3-phenyl-1H-pyrazol-4-yl)quinazolin-6-yl)-1-(trifluoromethyl)-1H-pyrazole-4-carboxamide]	4.1 nM	1.5 nM	2.7 nM
COc1cc2ncnc(-c3cn(C)nc3-c3ccccc3)c2cc1NC(=O)c1ccccc1C [Example 197, N-(7-methoxy-4-(1-methyl-3-phenyl-1H-pyrazol-4-yl)quinazolin-6-yl)-2-methylbenzamide]	2.5 nM	0.8 nM	1.8 nM
CCn1cc(-c2ncnc3cc(OC)c(NC(=O)[C@@]45COC[C@@H]4C5)nc23)c(-c2ccccc2)n1 (single isomer, unassigned) [Example 389, (1R,5R)—N-(4-(1-ethyl-3-phenyl-1H-pyrazol-4-yl)-7-methoxypyrido[3,2-d]pyrimidin-6-yl)-3-oxabicyclo[3.1.0]hexane-1-carboxamide or (1S,5S)—N-(4-(1-ethyl-3-phenyl-1H-pyrazol-4-yl)-7-methoxypyrido[3,2-d]pyrimidin-6-yl)-3-oxabicyclo[3.1.0]hexane-1-carboxamide]	0.4 nM	0.7 nM	6.4 nM
CN(C)CCOc1cc2ncnc(-c3cn(C)nc3-c3ccccc3)c2cc1NC(=O)c1ccccc1F [Example 300, N-(7-(2-(dimethylamino)ethoxy)-4-(1-methyl-3-phenyl-1H-pyrazol-4-yl)quinazolin-6-yl)-2-fluorobenzamide]	3.5 nM	1.7 nM	5 nM
